According to ChEMBL document CHEMBL1201862, “PubChem BioAssay data set” (2004):
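Cultured in 96-well plates, cells were exposed to test compound for 48 hours across five concentrations. GI50 = concentration required for 50% inhibition of growth.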 Activity calls are given as the source filed them. Cut-off read from the data, not from the text of the source: active = GI50 up to about 1.1 µM and inactive = higher.

Key:
Assay in all cases: DTP human tumour cell line panel, 48 h
SW-620 = system: SW-620
OVCAR-3 = system: OVCAR-3
SF-268 = system: SF-268
NCI-H460 = system: NCI-H460
SK-MEL-2 = system: SK-MEL-2
CCRF-CEM = system: CCRF-CEM
MOLT-4 = system: MOLT-4
SK-MEL-5 = system: SK-MEL-5
SN12C = system: SN12C
HCT-15 = system: HCT-15
SR = system: SR
HL-60 = system: HL-60
UO-31 = system: UO-31
HOP-92 = system: HOP-92
KM12 = system: KM12
OVCAR-5 = system: OVCAR-5

| Structure (SMILES) | GI50 (SW-620) | GI50 (OVCAR-3) | GI50 (SF-268) | GI50 (NCI-H460) | GI50 (SK-MEL-2) | GI50 (CCRF-CEM) | GI50 (MOLT-4) | GI50 (SK-MEL-5) | GI50 (SN12C) | GI50 (HCT-15) [µM] | GI50 (SR) | GI50 (HL-60) | GI50 (UO-31) | GI50 (HOP-92) | GI50 (KM12) | GI50 (OVCAR-5) |
| --- | --- | --- | --- | --- | --- | --- | --- | --- | --- | --- | --- | --- | --- | --- | --- | --- |
| CCOC(=O)C(C(CC(=O)OC)NC(=O)OCc1ccccc1)C1(C)OCCO1 (centres undefined) | > 100 µM (inactive) | > 100 µM (inactive) | > 100 µM (inactive) | > 100 µM (inactive) | > 100 µM (inactive) | > 100 µM (inactive) | > 100 µM (inactive) | > 100 µM (inactive) | > 100 µM (inactive) | > 100 | > 100 µM (inactive) | > 100 µM (inactive) | > 100 µM (inactive) |  |  |  |
| CN(C)CCCN1CCc2c([nH]c3ccccc23)C1c1cccnc1 (centres undefined) | > 100 µM (inactive) | > 100 µM (inactive) |  | > 100 µM (inactive) | > 100 µM (inactive) | > 100 µM (inactive) | > 100 µM (inactive) | > 100 µM (inactive) | > 100 µM (inactive) | > 100 | > 100 µM (inactive) | > 100 µM (inactive) | > 100 µM (inactive) | 33.8 µM (inactive) | > 100 µM (inactive) | > 100 µM (inactive) |
| CCCCN(CCCC)C(=Nc1ccccc1)N(CCCC)CCCC | 3.54 µM (inactive) | 3.3 µM (inactive) | 11.2 µM (inactive) | 3.34 µM (inactive) | 6.64 µM (inactive) | 3.89 µM (inactive) | 2.72 µM (inactive) |  |  |  |  | 1.79 µM (inactive) | 2.81 µM (inactive) | 1.62 µM (inactive) | 3.7 µM (inactive) | 5.78 µM (inactive) |
| CC(C)OCN/C(N)=N\C#N | 17 µM (inactive) | > 100 µM (inactive) | > 100 µM (inactive) | > 100 µM (inactive) | > 100 µM (inactive) |  | > 100 µM (inactive) | > 100 µM (inactive) | > 100 µM (inactive) | 17.5 | 10.8 µM (inactive) | > 100 µM (inactive) | > 100 µM (inactive) | > 100 µM (inactive) | > 100 µM (inactive) | > 100 µM (inactive) |
| O=C(c1ccccc1)C1S(=O)(=O)OCCOS1(=O)=O | > 100 µM (inactive) | > 100 µM (inactive) | > 100 µM (inactive) |  | > 100 µM (inactive) | > 100 µM (inactive) | > 10 µM (inactive) | > 100 µM (inactive) | > 100 µM (inactive) |  | > 100 µM (inactive) | > 100 µM (inactive) | > 100 µM (inactive) | > 100 µM (inactive) | > 100 µM (inactive) |  |
| Cc1ccc(NC(=O)OCC(COc2ccc(Cl)cc2Cl)OC(=O)Nc2ccc(C)cc2)cc1 (centres undefined) | > 100 µM (inactive) | 80.2 µM (inactive) | > 100 µM (inactive) | > 100 µM (inactive) | > 100 µM (inactive) |  |  |  | > 100 µM (inactive) | > 100 |  |  | 66.2 µM (inactive) | 53.7 µM (inactive) | > 100 µM (inactive) | > 100 µM (inactive) |
| CC(=O)OCCOCBr | > 100 µM (inactive) | > 100 µM (inactive) | > 100 µM (inactive) | > 100 µM (inactive) | > 100 µM (inactive) | > 100 µM (inactive) |  | > 100 µM (inactive) | > 100 µM (inactive) | > 100 |  | > 100 µM (inactive) | > 100 µM (inactive) | > 100 µM (inactive) | > 100 µM (inactive) | > 100 µM (inactive) |
| CCOC(=O)CC(=O)Sc1ccccc1 | 19.1 µM (inactive) | 17.3 µM (inactive) | 3.25 µM (inactive) | 24.7 µM (inactive) | 25.4 µM (inactive) | 3.82 µM (inactive) | 11 µM (inactive) | 17.3 µM (inactive) | 10.3 µM (inactive) |  | 14.1 µM (inactive) | 13.4 µM (inactive) | 14.7 µM (inactive) | 27.5 µM (inactive) | 25.6 µM (inactive) | 36.4 µM (inactive) |
| COc1ccccc1NC(=O)CC(=O)n1nc(C)c(/N=N/c2ccccc2C(=O)O)c1C | > 100 µM (inactive) | 73.1 µM (inactive) | > 100 µM (inactive) | > 100 µM (inactive) | > 100 µM (inactive) | > 100 µM (inactive) | > 100 µM (inactive) | 68.1 µM (inactive) | > 100 µM (inactive) | > 100 |  | > 100 µM (inactive) | 48.6 µM (inactive) |  | > 100 µM (inactive) | > 100 µM (inactive) |
| O=C1C2c3[nH]c4ccccc4c3C3CCCCCCC3C2C(=O)N1c1ccccc1 (centres undefined) | 8.61 µM (inactive) | 4.35 µM (inactive) | 21.6 µM (inactive) | 4.91 µM (inactive) |  | 10.2 µM (inactive) | > 10 µM (inactive) | 33 µM (inactive) | 6.03 µM (inactive) | 22.3 | 14.9 µM (inactive) |  |  |  | 33.6 µM (inactive) |  |
| Cc1ccc(/C=N/NS(=O)(=O)c2ccccc2)cc1C | > 100 µM (inactive) | > 100 µM (inactive) | > 100 µM (inactive) | > 100 µM (inactive) | > 100 µM (inactive) | > 100 µM (inactive) | > 100 µM (inactive) | > 100 µM (inactive) | > 100 µM (inactive) | > 100 | 86.7 µM (inactive) | > 100 µM (inactive) | > 100 µM (inactive) | > 100 µM (inactive) | > 100 µM (inactive) | > 100 µM (inactive) |
| CC(=O)OCCC(O[Si](c1ccccc1)(c1ccccc1)C(C)(C)C)C(C)(C)O (centres undefined) | 54.8 µM (inactive) | 21 µM (inactive) | 38.5 µM (inactive) | 32.1 µM (inactive) | 75 µM (inactive) | 24.6 µM (inactive) | 24 µM (inactive) | 51.6 µM (inactive) | 18.3 µM (inactive) | 31.1 |  |  | 22.1 µM (inactive) | 24.6 µM (inactive) | 23.3 µM (inactive) | > 100 µM (inactive) |
| O=C1C2C=CC(n3[nH]c(=O)n(Cc4ccccc4)c3=O)CC2C(=O)N1c1ccc(Br)cc1 (centres undefined) | > 100 µM (inactive) | > 100 µM (inactive) | > 100 µM (inactive) | > 100 µM (inactive) | > 100 µM (inactive) | > 100 µM (inactive) | > 100 µM (inactive) | > 100 µM (inactive) | > 100 µM (inactive) | > 100 | > 100 µM (inactive) | > 100 µM (inactive) | > 100 µM (inactive) | > 100 µM (inactive) | > 100 µM (inactive) | > 100 µM (inactive) |
| CCCCCOCC(O)CO (centres undefined) | > 100 µM (inactive) | > 100 µM (inactive) | > 100 µM (inactive) | > 100 µM (inactive) | > 100 µM (inactive) |  |  | > 100 µM (inactive) | > 100 µM (inactive) | > 100 |  |  |  | > 100 µM (inactive) | > 100 µM (inactive) | > 100 µM (inactive) |
| O=C(CC1(O)C(=O)Nc2ccccc21)c1ccc(Cl)cc1Cl (centres undefined) | > 100 µM (inactive) | > 100 µM (inactive) | > 100 µM (inactive) |  | > 100 µM (inactive) |  | > 100 µM (inactive) | > 100 µM (inactive) | > 100 µM (inactive) | > 100 |  | > 100 µM (inactive) | > 100 µM (inactive) | > 100 µM (inactive) |  | > 100 µM (inactive) |
| N#CC(C(=O)CCC(=O)Nc1ccc(Cl)c(Cl)c1)c1ccc(Cl)cc1 (centres undefined) | > 100 µM (inactive) | > 100 µM (inactive) | > 100 µM (inactive) | > 100 µM (inactive) | 22.9 µM (inactive) |  | 53.7 µM (inactive) | 65.6 µM (inactive) | > 100 µM (inactive) | 17.1 |  | 83.9 µM (inactive) | 75.2 µM (inactive) | 80.9 µM (inactive) | 47.5 µM (inactive) | 23.9 µM (inactive) |
| CCOc1ccc(NC(=O)C2=C(C)NC(C)=C(C(=O)Nc3ccc(OCC)cc3)C2c2ccc([N+](=O)[O-])cc2)cc1 | 22.3 µM (inactive) | 30.3 µM (inactive) | 27.4 µM (inactive) | 22.9 µM (inactive) | 16.2 µM (inactive) | 13.3 µM (inactive) | 7.1 µM (inactive) | 15.3 µM (inactive) | 42.9 µM (inactive) |  |  | 18.3 µM (inactive) | 17.7 µM (inactive) | 12.9 µM (inactive) | 29.9 µM (inactive) | 31.8 µM (inactive) |
| O=C(Nc1ccccc1-c1nn(C(=S)Nc2ccccc2)c(=S)n(C(=S)Nc2ccccc2)c1=O)C(F)(F)F | 23.9 µM (inactive) | 21.6 µM (inactive) | 26.5 µM (inactive) | 21.3 µM (inactive) | 22.2 µM (inactive) | 13.3 µM (inactive) | 7.85 µM (inactive) | 11.7 µM (inactive) | 26.4 µM (inactive) | 20.1 |  | 20.9 µM (inactive) | 11.9 µM (inactive) | 12.8 µM (inactive) | 17.3 µM (inactive) | 49.9 µM (inactive) |
| O=C1C2CCC(C2)C12CC1(c3ccccc3)C(=O)c3ccccc3N1O2 (centres undefined) | > 100 µM (inactive) |  | > 100 µM (inactive) |  |  | > 100 µM (inactive) | 42.6 µM (inactive) | > 100 µM (inactive) | > 100 µM (inactive) | > 100 | 67.5 µM (inactive) | 42.1 µM (inactive) | > 100 µM (inactive) | 42.7 µM (inactive) |  |  |
| CC(=O)OC(C[C@H](C)[C@@H]1CC[C@]2(C)C3=CCC4C(C)(C)C(=O)CC[C@]4(C)C3CCC12C)C1OC1(C)C (some centres undefined) | 34.1 µM (inactive) | 88.9 µM (inactive) | 21.6 µM (inactive) |  | 45.1 µM (inactive) | 15.9 µM (inactive) | 24.5 µM (inactive) |  |  | 33 | > 10 µM (inactive) | 7.29 µM (inactive) | 13.2 µM (inactive) | 11.9 µM (inactive) | 20 µM (inactive) | 16.7 µM (inactive) |
